According to patent US20140135370A1, “TREATING CANCER WITH AN HSP90 INHIBITORY COMPOUND” (SYNTA PHARMACEUTICALS CORP., priority 2011, published 2014):
Like-named read-outs stand apart in the source and are kept apart here.

Experiments:
Hs746T = assay: 72 hr viability by Syto60, Hs746T; format: cell-based; settings: Homo sapiens
Procedure: Many of the oncoproteins associated with gastric cancer and Hsp90 client proteins including HER2, MET, RAS and the FGFR family. […] Cells were treated for 72 hr and viability determined by CTG (upper) or Syto60 (lower).

HCC70 = assay: 72 hr viability by CTG, HCC70; format: cell-based; settings: Homo sapiens, HCC70, Basal A
Procedure: Breast cancer is a heterogeneous disease historically broken down into 4 subtypes. Various compounds were tested for their effects in cell viability assays using various breast cancer cell lines. Cellular viability was assessed using the CellTiter-Glo® Luminescent Cell Viability Assay (Promega, Madison, Wis., USA) according to the manufacturer's protocol. […] were seeded into 96-well plates based on optimal growth rates determined empirically for each line. […] CellTiter-Glo® was added (50% v/v) to the cells, and the plates incubated for 10 min prior to luminescent detection in a SpectraMax® Plus 384 microplate reader (Molecular Devices, Sunnyvale, Calif., USA). Data were normalized to percent of control and IC50 values used to determine the sensitivity of each line.

NSCLC = assay: Phase 2 clinical trial in NSCLC by KRAS, EGFR and ALK mutation status; format: in vivo, human
Procedure: Initial cohorts were defined by mutation status: A) EGFR mutation, KRAS wild-type B) EGFR wild-type, KRAS mutation C) EGFR wild-type, KRAS wild-type (WT). If ≧2/14 patients in A, B or C were progression-free at 16 weeks, enrollment increased to 23 patients for that cohort. Tumor response was assessed every 8 weeks. Cohort D was added to include 35 additional EGFR wild-type and KRAS wild-type patients with adenocarcinoma histology. FISH analysis for ALK translocation, was performed for Cohorts C and D.

[1] = Serial PK in patients with solid tumors, twice-weekly infusion; format: in vivo, human
From the text: (§1) Serial PK and pharmacodynamic samples were obtained during cycle 1. Safety assessments included frequency and grade of adverse events (AEs), laboratory parameters and ECG changes.

[2] = system: Chk1 and Chk2 phosphorylation in Detroit 562 head and neck cancer cells; assay: Western blot after bleomycin, Detroit 562; format: cell-based; settings: 100 nM 24 hours prior to bleomycin (5 μM)
Procedure: Protein expression of Parp, P-Chk1, P-Chk2, and Gapdh (control) was measured at the indicated time points (1, 4, and 8 hours) after bleomycin treatment.
Protein expression was measured at the indicated time points after bleomycin treatment.

[3] = Pharmacokinetics in the Phase 1 combination trial with docetaxel; format: in vivo, human; settings: patients
Procedure: A trial to evaluate three dose-level combinations of docetaxel and the compound of formula (I), administered on a three-week cycle, with the primary objective of determining an optimal dose for future clinical trials was performed. […] The standard of care dose level for docetaxel was 75 mg/m^2. A total of 19 patients received at least one dose of study treatment at the cut-off time. The median number of cycles of treatment was 4, with a range of 1 to 11 cycles of treatment. No prophylactic treatment for neutropenia was used.

[4] = system: human KRAS mutant NSCLC tumor xenografts; assay: KRAS mutant NSCLC tumor xenografts in vivo; set-up: species or system mouse; settings: single agent
Procedure: Female immunodeficient CD-1 (nude) mice (Charles River Laboratories, Wilmington, Mass.) were maintained in a pathogen-free environment, and all in vivo procedures were approved by the Synta Pharmaceuticals Corp. Institutional Animal Care and Use Committee. A549 NSCLC cells (7.5×10^6) were subcutaneously implanted into the animals. […] Tumor growth inhibition was determined as described previously. See Proia et al, PLoS One. 2011; 6(4):e18552.

solid tumors [5] = assay: Phase I dose escalation study, twice-weekly administration in patients with solid tumors; format: in vivo, human; settings: 41 of 54 enrolled patients assessable; 1-hour infusion 2 times per week, 3 weeks on, 1 week dose-free
Procedure: An open-label Phase 1 dose-escalation study in subjects with solid tumors was performed. […] The first infusion for the first three subjects was staggered by a minimum of 5 days between subjects. This staggered enrollment scheme was followed for the first cohort only.
Subsequent cohorts were originally planned to receive escalating doses of 4, 7, 10, 14, 19, 25, 33, 40 and 48 mg/m^2, provided that the previous dose was well-tolerated during cycle 1 (week 1-4). The dose escalation scheme was updated to 25, 50, 75 and 100 mg/m^2, provided that the previous dose was well-tolerated during cycle 1. Following the completion of enrollment at 50 mg/m^2 twice per week, subsequent cohorts were to be treated at 100 mg/m^2 (100% increase above prior dose) and 120 mg/m^2 (20% increase above prior dose), with further dose increments to be approximately 20% over the previous dose level, until the maximum tolerated dose (MTD) was determined. Enrollment was completed at 100 mg/m^2 and the next doses planned were 120 mg/m^2 and 144 mg/m^2.
There had to be at least three evaluable subjects in a cohort before dose escalation could occur. […] Once a subject experienced a DLT the cohort was expanded to six subjects. If only 1 of 6 subjects experienced a DLT, further dose escalation was allowed. However, if 2 of 3 or 2 of 6 subjects experienced a DLT, dose escalation terminated. […]

GIST = assay: Phase 2 study in gastrointestinal stromal tumors (GIST); format: in vivo, human
Procedure: GIST status was assessed at 8 weeks per RECIST, until progression.

[6] = system: Hsp90 client proteins in AGS gastric cancer cells; assay: Western blot of Hsp90 client proteins, AGS; format: cell-based
[7] = system: Detroit 562 H/N cancer cells; assay: Single agent viability assay, Detroit 562, 72 hr; format: cell-based
From the text: Head and neck (H/N) cancer refers to a group of biologically similar cancers originating from the upper autodigestive tract. First line therapies include EGFR inhibitors and platins.

[8] = system: MET, IGF-IR, AKT in MKN45 cells; assay: Western blot of Hsp90 client proteins, MKN45; format: cell-based
solid tumors [9] = assay: Phase 2 study in solid tumors, twice-weekly infusion; format: in vivo, human
From the text: as §1

Procedure for metastatic breast cancer: The primary endpoint of the trial was overall response rate using RECIST 1.1. Patients with HER2+ breast cancer were required to have received prior therapy with trastuzumab. No more than 3 lines of chemotherapy in the metastatic setting were permitted, but there was no limit on prior lines of hormone therapy. Patients were evaluated for response after 2 cycles. The trial used a Simon two-stage design requiring at least 3 responses among the first 22 patients, to allow expansion to a total of 40 patients.

CC(C)c1cc(-c2nnc(O)n2-c2ccc3c(ccn3C)c2)c(O)cc1O [compound of formula (I), ganetespib]
IC50 (Hs746T): 384 nM | CBR (CR + PR + SD > 6 months) (metastatic breast cancer; ER+/HER2− (N = 6)): 0 patients | CR (metastatic breast cancer; ER+/HER2− (N = 6)): 0 patients | ORR (metastatic breast cancer; ER+/HER2− (N = 6)): 0 patients | PR (metastatic breast cancer; ER+/HER2− (N = 6)): 0 patients | CBR (CR + PR + SD > 6 months) (metastatic breast cancer; HER2+ (N = 13)): 2 (9%) patients (%) | CR (metastatic breast cancer; HER2+ (N = 13)): 0 patients | ORR (metastatic breast cancer; HER2+ (N = 13)): 2 (9%) patients (%) | PR (metastatic breast cancer; HER2+ (N = 13)): 2 patients | CBR (CR + PR + SD > 6 months) (metastatic breast cancer; TNBC (N = 3)): 0 patients | CR (metastatic breast cancer; TNBC (N = 3)): 0 patients | ORR (metastatic breast cancer; TNBC (N = 3)): 0 patients | PR (metastatic breast cancer; TNBC (N = 3)): 0 patients | CBR (CR + PR + SD > 6 months) (metastatic breast cancer; Total (N = 22)): 2 (9%) patients (%) | CR (metastatic breast cancer; Total (N = 22)): 0 patients | PR (metastatic breast cancer; Total (N = 22)): 2 (9%) patients (%) | ORR (metastatic breast cancer; Total (N = 22), 200 mg/m^2 once weekly 3 weeks of 28 day cycle, RECIST 1.1): 2 (9%) patients (%) | IC50 (HCC70): 114 nM | Adverse events reported in >20% of patients (NSCLC; 73 patients, 200 mg/m^2 once weekly for 3 of a 4-wk cycle, generally grade 1-2): diarrhea, fatigue, nausea, anorexia, constipation, and dyspnea | Objective response rate (CR + PR) (NSCLC; ALK+ patients, 4/8): 50% | Best response reported, cohort C (NSCLC; Cohort C: EGFR wild-type, KRAS wild-type): durable partial response (PR) | Tolerability (NSCLC; single agent, 200 mg/m^2 once weekly): well-tolerated in patients with NSCLC at 200 mg/m^2 once weekly without severe liver, ocular, cardiovascular or renal toxicity | Distribution [1]: rapid distribution | Effect on bleomycin-increased Chk1 and Chk2 phosphorylation [2]: blocked | Effect on docetaxel pharmacokinetics [3]: no effect | Pharmacokinetics alone versus administered prior to docetaxel [3]: pharmacokinetic similarity | Growth of tumor xenografts [4]: effectively suppressed the growth | Confirmed partial responses, melanoma (solid tumors [5]): 1 patient | Confirmed partial responses, triple negative breast cancer (solid tumors [5]): 1 patient | Patients with SD≧8 wks (GIST; 23 evaluable patients): 8 patients | Patients with SD≧16 wks (GIST; 23 evaluable patients): 4 patients | Tolerability (GIST; once-weekly dosing): well-tolerated in patients with heavily pre-treated advanced GIST, with no evidence of severe liver, ocular, cardiac or renal toxicity | Effect on B-RAF expression [6]: enhanced B-RAF expression | Effect on Hsp90 client protein expression [6]: abolished the expression of EGFR, IGF-IR, C-RAF and their down-stream effectors PI3K/AKT and MAPK | Extent of cell kill after 72 hr exposure [7]: A fraction of cells remained viable | Effect on MET, IGF-IR and AKT [8]: complete degradation of MET and IGF-IR, followed by inactivation of AKT | Tolerability (solid tumors [9]; twice-weekly): well-tolerated administered twice-weekly | Response in a patient with metastatic melanoma (solid tumors [9]; twice-weekly dosing): confirmed durable PR by RECIST
